Results published in patent US12533349B2, “Drug formulations for reservoir-based delivery” (Medtronic, Inc., priority 2020, dated 2026).

What was measured:
Format in all cases: physicochemical
[1] = Differential HSP between drug and drug-contacting material of SynchroMed II infusion device; conditions: bupivacaine vs drug-contacting material (silicone); less than 7 is considered high risk of migration
Description: (§1) Without intending to be bound by theory, it is believed that HSP provides a thermodynamic indication of whether a compound will migrate into a component of the reservoir-based delivery device, such as a polymeric component of the reservoir-based delivery device. Greater differences between HSPs of the compound and the component tend to result in lower amounts of migration.
For purposes of the present disclosure, differential HSP values of less than 7 are considered to be of high risk, HSP values between 7 and 10 are considered to be of medium risk, and HSP values of greater than 10 are considered to be of low risk for the drug to migrate into the component of the reservoir-based delivery device. Differential HSP values may be determined as described in Kitak, et al. (2015), “Determination of Solubility Parameters of Ibuprofen and Ibuprofen Lysinate,” Molecules, 20:21549-21568. […]
In the following, non-limiting example development of a bupivacaine formulation for use in a reservoir-based delivery device is shown. The drug delivery device for which compatibility was determined was Medtronic, Inc.'s SynchroMed® II implantable infusion device. […]
The differential HSP value was determined to be 4.2, which is considered to be high risk of the drug migrating into the drug-contacting material.

[2] = Potential for chemical reaction between functional groups of drug and drug-contacting material; conditions: drug-contacting material silicone
Description: The presence of certain functional groups on the drug or components of the formulation and certain functional groups on drug formulation contacting materials of the reservoir-based delivery devices may result in concern for chemical reaction between one or more ingredients of the formulation and the drug formulation contacting materials.
For example, silyl ether groups which may be present on silicone drug formulation contacting materials may react with amine groups, phosphate groups, or carboxylate groups of ingredients of the drug formulation.
In the following, non-limiting example development of a bupivacaine formulation for use in a reservoir-based delivery device is shown. The drug delivery device for which compatibility was determined was Medtronic, Inc.'s SynchroMed® II implantable infusion device. The material of the component of the SynchroMed® II for which compatibility was tested was silicone. Bupivacaine may migrate into silicone without consideration of formulation.
In addition, it was determined that bupivacaine has a high risk of potential for chemical reaction between functional groups in bupivacaine and the functional groups in the drug-contacting material.

[3] = Hansen Solubility Parameters (HSP) determination; conditions: Hansen Solubility Parameter
Description: as §1
For purposes of the present disclosure, differential HSP values of less than 7 are considered to be of high risk, HSP values between 7 and 10 are considered to be of medium risk, and HSP values of greater than 10 are considered to be of low risk for the drug to migrate into the component of the reservoir-based delivery device. Differential HSP values may be determined as described in Kitak, et al. (2015), “Determination of Solubility Parameters of Ibuprofen and Ibuprofen Lysinate,” Molecules, 20:21549-21568. One useful measurement of differential HSP values is described in Equation (4) of Kitak, et al. on page 21550. Other useful measurements include Equations (5), (6), and (7) of Kitak, et al. on pages 21550-21551.
The HSP of bupivacaine and the drug contacting material (silicone) were determined.

Question: For `CCCCN1CCCCC1C(=O)Nc1c(C)cccc1C` (centres unmarked) [bupivacaine], which “differential HSP value” [1] is on record?
Answer: 4.2

Question: What about the “risk of potential for chemical reaction between functional groups in bupivacaine and in the drug-contacting material” value [2] of the same molecule?
Answer: high risk

Question: And the “HSP δD” value ([3]; δD component)?
Answer: 18.1

Question: What about the “HSP δH” value ([3]; δH component) of the same molecule?
Answer: 6.03

Question: What about the “HSP δP” value ([3]; δP component) of the same molecule?
Answer: 6.46
